We go through 27 compounds from patent US12398111B2, “Triazine compounds and pharmaceutical use thereof” (Japan Tobacco Inc., priority 2014, dated 2025).

For this assay, the target named is T1, human mPGES-1 (Homo sapiens, UniProt O14684).
T1 construct: made in house; host or cells: FreeStyle CHO-S cells (Chinese hamster ovary), transient transfection with pcDNA3.1(+)/human mPGES-1; microsome fraction used
T1 sequence (O14684 1-152): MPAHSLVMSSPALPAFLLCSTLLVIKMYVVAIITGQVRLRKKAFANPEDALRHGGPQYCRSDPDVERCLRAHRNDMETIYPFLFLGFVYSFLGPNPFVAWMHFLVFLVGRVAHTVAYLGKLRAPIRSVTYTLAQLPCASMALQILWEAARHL
As to the kind of experiment: Evaluation of human mPGES-1 enzyme inhibitory activity (PGE2 measured by HTRF, microsome fraction of CHO-S cells expressing human mPGES-1). The format is biochemical. The conditions noted are these: IC50 value; microsome fraction of CHO-S cells expressing human mPGES-1, PGE2 by HTRF. How it is done: That is, the amount of PGE2 produced by human mPGES-1 in the presence of a test article was measured by the HTRF (homogeneous time resolved fluorescence) method, based on which the human mPGES-1 enzyme inhibitory activity of the test article was determined.
1) Preparation of Human mPGES-1 Expressing Cell Microsome Fraction
A DNA fragment containing human mPGES-1, which is added with a BamHI recognition cleavage sequence immediately before the translation initiation codon and an EcoRI recognition cleavage sequence immediately after the translation termination codon was amplified by the PCR (Polymerase Chain Reaction) method using a human mPGES-1 expression plasmid DNA (pME-18S/iPGES-1) prepared in-house as a template. The purified DNA fragment was digested with BamHI and EcoRI, and ligated to pcDNA3.1(+) (Invitrogen, model number V790-20), similarly digested with BamHI and EcoRI, by using a DNA Ligation kit ver.2.1 (Takara Bio, model number 6022). The human mPGES-1 expression plasmid DNA was isolated from Escherichia coli DH5a (TOYOBO, model number DNA-903) transformed with the obtained ligation product. The base sequence of human mPGES-1 cloned to a vector was determined by the Dye Terminator method by using BigDye Terminator v3.1 Cycle Sequencing Kit (Applied Biosystems, #4337455).
Human mPGES-1 expression plasmid DNA was transfected into Chinese hamster ovary-derived cells (FreeStyle CHO-S Cell, Invitrogen, #R800-07) by using a transgene reagent (FreeStyle MAX Reagent (Invitrogen, #16447-100)), and cultured with shaking (8% CO2, 37° C.) in a medium containing 8 mmol/L L-glutamine (GIBCO FreeStyle CHO Expression Medium, Invitrogen, #12651-022) for 48 hr.
The CHO-S cells were suspended in Homogenate Buffer (100 mmol/L potassium phosphate (pH 7.4), 250 mmol/L Sucrose, 100 mmol/L EDTA, complete EDTA free (Roche, #1873580)). Using an ultrasonic disruptor UD-201 (Tomy Seiko), the suspended cells were disrupted at output:3, duty cycle:50 for 30 seconds. The precipitate was removed by centrifugation (1,000×g, 5 min, 4° C.), is and the supernatant was centrifuged (5,000×g, 10 min, 4° C.). The supernatant was further centrifuged (105,000×g, 60 min, 4° C.). The obtained precipitate was suspended in Resuspension Buffer (100 mmol/L potassium phosphate (pH 7.4), 250 mmol/L sucrose, 100 mmol/L EDTA, 10% glycerol) to give a microsome fraction.
The protein concentration of the microsome fraction was measured by the Bradford method (Protein Assay Kit, Bio-Rad). The microsome fraction was rapidly frozen in liquid nitrogen and preserved at −80° C. Human mPGES-1 in the microsome fraction was detected by Western Blot using rabbit anti-mPGES-1 polyclonal antibody (ThermoFisher Scientific, #PA1-10264).
2) Evaluation of Human mPGES-1 Enzyme Inhibitory Activity
A test article solution diluted with 0.1 mol/L potassium phosphate, pH 7.4 (hereinafter to be referred to as KPB) or DMSO (Nacalai Tesque, #13407-45) was added at 5 μL/well to 96 well V-bottom plate (Corning, #3363). The final DMSO concentration during the reaction was set to 2% (v/v). Furthermore, a microsome fraction of CHO-S cells expressing human mPGES-1, which was diluted with reduced GSH (12.5 mmol/L KPB solution, SIGMA, #G6529-25G) such that the protein concentration was 5 μg/mL, was added at 20 μL/well. The amount of the microsome fraction used is the amount of microsome fraction within a range where the amount of PGE2 produced under the reaction conditions shown below and the amount of microsome fraction used show linearity. To the blank was added reduced GSH (12.5 mmol/L KPB solution) at 20 μL/well.
Background: In TR-FRET formats the signal depends on donor and acceptor labels being close together.
In general, IC50 refers to the midpoint of a concentration-inhibition curve. Low values mean inhibition by little substance, high ones a need for much substance. For `COCc1cccc(-c2nc(O)nc(-c3cc(CNC(=O)C(C)(C)C)ccc3Cl)n2)c1` [Example 1-75], the half-maximal inhibitory concentration (IC50) was 0.0067 µM.
As for `CC(=O)N(C)Cc1ccc(Cl)c(-c2nc(O)nc(-c3ccc(C(F)(F)F)cc3)n2)c1` [Example 1-21], the IC50 amounted to 0.988 µM.
The figure for `Cc1cccc(C)c1-c1nc(O)nc(-c2ccc(OC3CCCCC3)cc2)n1` [Example 2-46] is 0.494 µM; for `CCCC1(CCC)CN(Cc2ccc(Cl)c(-c3nc(O)nc(-c4ccccc4)n3)c2)C1=O` [Example 1-260] it is 0.147 µM; for `CC(C)COc1ccc(-c2nc(O)nc(-c3cc(CNC(=O)C(C)(C)C(F)(F)F)ccc3Cl)n2)cc1C(F)(F)F` [Example 1-120] it is 0.048 µM.
The figure for `CC(C)COc1cccc(Cl)c1-c1nc(O)nc(-c2ccc(C(F)(F)F)cc2)n1` [Example 2-33] is 0.102 µM; for `CCC(CC)(CO)C(=O)NCc1ccc(Cl)c(-c2nc(O)nc(-c3ccccc3)n2)c1` [Example 1-250] it is 0.012 µM.
The compound `Cc1cccc(C)c1-c1nc(O)nc(-c2ccc(C(C)C)cc2)n1` [Example 2-8] returned an IC50 of 1.9 µM.
The figure for `CO[C@@](C)(C(=O)NCc1ccc(Cl)c(-c2nc(O)nc(-c3ccccc3)n2)c1)C(F)(F)F` [Example 1-89] is 0.0009 µM; for `Cc1cccc(-c2nc(O)nc(-c3cc(CNC(=O)C(C)(C)C)ccc3Cl)n2)c1` [Example 1-64] it is 0.0019 µM; for `Cc1cccc(C)c1-c1nc(O)nc(-c2ccc(OCc3ccccc3)cc2)n1` [Example 2-5] it is 0.101 µM.
Next, `O=C(NCc1ccc(Cl)c(-c2nc(O)nc(-c3ccccc3)n2)c1)C1(C(F)(F)F)CCCC1` [Example 1-68]: 0.0003 µM; `CCCCc1ccc(-c2nc(O)nc(-c3cc(CNC(=O)[C@@](C)(OC)C(F)(F)F)ccc3Cl)n2)cc1` [Example 1-181]: 0.0024 µM.
The figure for `Oc1nc(-c2ccc(C(F)(F)F)cc2)nc(-c2c(O)cccc2Cl)n1` [Example 2-16] is 0.412 µM; for `CC#CCOc1ccc(-c2nc(O)nc(-c3cc(CNC(=O)C(C)(C)C(F)(F)F)ccc3Cl)n2)cc1` [Example 1-146] it is 0.0004 µM.
Compound `CCCC(=O)NCc1ccc(Cl)c(-c2nc(O)nc(-c3ccc(C(F)(F)F)cc3)n2)c1` [Example 1-36] had an IC50 of 0.0007 µM.
The figure for `CC1(C)CCN(Cc2ccc(Cl)c(-c3nc(O)nc(-c4ccccc4)n3)c2)C1=O` [Example 1-240] is 0.428 µM; for `CCC(C)(C)C(=O)NCc1ccc(Cl)c(-c2nc(O)nc(-c3cccc(C(F)(F)F)c3)n2)c1` [Example 1-58] it is 0.0005 µM.
Next, `CO[C@](C)(C(=O)NC(C)c1ccc(Cl)c(-c2nc(O)nc(-c3ccc(F)c(C)c3)n2)c1)C(F)(F)F` (single isomer, unassigned) [Example 1-188]: 0.0016 µM; `Cc1cc(Cl)c(-c2nc(O)nc(-c3ccc(OCC4CC4)cc3)n2)cc1CNC(=O)C(C)(C)C(F)(F)F` [Example 3-17]: 0.0008 µM.
As to `CCNCc1ccc(Cl)c(-c2nc(O)nc(-c3ccc(OCC(C)(C)C)cc3)n2)c1` [Example 1-210], the IC50 worked out at 0.288 µM.
The figure for `CCC1(CC)CN(Cc2ccc(Cl)c(-c3nc(O)nc(-c4ccccc4)n3)c2)C1=O` [Example 1-251] is 0.018 µM; for `O=C1N(Cc2ccc(Cl)c(-c3nc(O)nc(-c4ccccc4)n3)c2)CC12CCCCC2` [Example 1-248] it is 0.016 µM.
The figure for `CO[C@](C)(C(=O)NCc1ccc(Cl)c(-c2nc(O)nc(-c3ccc(C(C)(F)F)cc3)n2)c1)C(F)(F)F` [Example 1-138] is 0.0005 µM; for `Cc1cccc(C)c1-c1nc(O)nc(-c2ccc(CCc3ccccc3)cc2)n1` [Example 2-12] it is 0.141 µM.
Next, `Cc1cccc(C)c1-c1nc(O)nc(-c2ccc(OC3CCC(C)(C)CC3)cc2)n1` [Example 2-47]: 0.295 µM.
`CO[C@](C)(C(=O)NCc1ccc(Cl)c(-c2nc(O)nc(-c3cccc(C(C)C)c3)n2)c1)C(F)(F)F` [Example 1-108] had an IC50 of 0.0006 µM.
